Literature values as cited in US7833986B2, “Anti-inflammatory peptides” (Salpep Biotechnology Inc., priority 2002, dated 2010).

System: lipopolysaccharide-induced hypotension
Details: Mathison et al. (1997)

Substance: submandibular gland peptide-T [SGP-T]
- doses that inhibit lipopolysaccharide-induced hypotension: ≥ 1 µg/kg
